How the values were obtained:
[1] = Cytotoxicity against human SKBR3 cells expressing wild type EGFR assessed as growth inhibition incubated for 1 hr prior to EGF challenge measured after 72 hrs by luciferase reporter gene assay; assay type: functional, cell-based; settings: SK-BR-3
NCI-H1975 = test: cells; assay type: functional, cell-based; settings: Homo sapiens
[2] = molecular target: Epidermal growth factor receptor (Homo sapiens, UniProt P00533, L858R/T790M); assay type: cell-based, NCI-H1975
[3] = molecular target: Epidermal growth factor receptor (Homo sapiens, UniProt P00533); test: Inhibition of recombinant wild type EGFR kinase(unknown origin) after 30 mins in presence of [gamma32P]ATP
Chain of Epidermal growth factor receptor (Homo sapiens, UniProt P00533) (P00533 whole entry): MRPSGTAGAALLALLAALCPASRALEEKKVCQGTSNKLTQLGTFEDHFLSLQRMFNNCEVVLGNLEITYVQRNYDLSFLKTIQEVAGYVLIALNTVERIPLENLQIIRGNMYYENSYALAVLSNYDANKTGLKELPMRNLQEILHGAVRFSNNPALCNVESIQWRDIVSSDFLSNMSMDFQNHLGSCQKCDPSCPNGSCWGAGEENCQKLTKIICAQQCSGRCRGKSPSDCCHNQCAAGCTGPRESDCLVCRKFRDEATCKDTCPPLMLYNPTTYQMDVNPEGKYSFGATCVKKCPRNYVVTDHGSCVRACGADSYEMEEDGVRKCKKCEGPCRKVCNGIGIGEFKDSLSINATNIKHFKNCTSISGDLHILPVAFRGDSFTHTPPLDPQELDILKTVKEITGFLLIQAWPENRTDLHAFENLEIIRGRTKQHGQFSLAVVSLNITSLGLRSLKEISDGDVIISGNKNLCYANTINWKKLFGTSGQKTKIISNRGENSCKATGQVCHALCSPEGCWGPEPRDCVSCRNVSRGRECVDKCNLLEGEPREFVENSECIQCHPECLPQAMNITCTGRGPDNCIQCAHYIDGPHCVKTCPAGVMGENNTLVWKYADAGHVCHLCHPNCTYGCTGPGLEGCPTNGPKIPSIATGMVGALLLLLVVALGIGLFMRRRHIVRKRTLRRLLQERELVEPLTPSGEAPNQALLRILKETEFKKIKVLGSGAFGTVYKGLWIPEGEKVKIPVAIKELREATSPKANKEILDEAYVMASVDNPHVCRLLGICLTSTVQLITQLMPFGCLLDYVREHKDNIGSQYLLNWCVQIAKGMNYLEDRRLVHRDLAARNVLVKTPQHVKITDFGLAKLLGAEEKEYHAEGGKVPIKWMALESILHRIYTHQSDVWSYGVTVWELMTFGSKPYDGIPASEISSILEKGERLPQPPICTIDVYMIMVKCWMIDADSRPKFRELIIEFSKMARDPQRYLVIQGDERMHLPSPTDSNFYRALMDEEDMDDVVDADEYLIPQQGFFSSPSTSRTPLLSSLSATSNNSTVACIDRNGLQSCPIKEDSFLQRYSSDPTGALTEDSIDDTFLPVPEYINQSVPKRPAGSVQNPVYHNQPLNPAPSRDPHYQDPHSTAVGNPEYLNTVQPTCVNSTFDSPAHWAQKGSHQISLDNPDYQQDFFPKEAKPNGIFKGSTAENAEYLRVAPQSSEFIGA

Chain of Epidermal growth factor receptor (Homo sapiens, UniProt P00533, L858R/T790M) (P00533 25-1210 T790M/L858R limits assumed): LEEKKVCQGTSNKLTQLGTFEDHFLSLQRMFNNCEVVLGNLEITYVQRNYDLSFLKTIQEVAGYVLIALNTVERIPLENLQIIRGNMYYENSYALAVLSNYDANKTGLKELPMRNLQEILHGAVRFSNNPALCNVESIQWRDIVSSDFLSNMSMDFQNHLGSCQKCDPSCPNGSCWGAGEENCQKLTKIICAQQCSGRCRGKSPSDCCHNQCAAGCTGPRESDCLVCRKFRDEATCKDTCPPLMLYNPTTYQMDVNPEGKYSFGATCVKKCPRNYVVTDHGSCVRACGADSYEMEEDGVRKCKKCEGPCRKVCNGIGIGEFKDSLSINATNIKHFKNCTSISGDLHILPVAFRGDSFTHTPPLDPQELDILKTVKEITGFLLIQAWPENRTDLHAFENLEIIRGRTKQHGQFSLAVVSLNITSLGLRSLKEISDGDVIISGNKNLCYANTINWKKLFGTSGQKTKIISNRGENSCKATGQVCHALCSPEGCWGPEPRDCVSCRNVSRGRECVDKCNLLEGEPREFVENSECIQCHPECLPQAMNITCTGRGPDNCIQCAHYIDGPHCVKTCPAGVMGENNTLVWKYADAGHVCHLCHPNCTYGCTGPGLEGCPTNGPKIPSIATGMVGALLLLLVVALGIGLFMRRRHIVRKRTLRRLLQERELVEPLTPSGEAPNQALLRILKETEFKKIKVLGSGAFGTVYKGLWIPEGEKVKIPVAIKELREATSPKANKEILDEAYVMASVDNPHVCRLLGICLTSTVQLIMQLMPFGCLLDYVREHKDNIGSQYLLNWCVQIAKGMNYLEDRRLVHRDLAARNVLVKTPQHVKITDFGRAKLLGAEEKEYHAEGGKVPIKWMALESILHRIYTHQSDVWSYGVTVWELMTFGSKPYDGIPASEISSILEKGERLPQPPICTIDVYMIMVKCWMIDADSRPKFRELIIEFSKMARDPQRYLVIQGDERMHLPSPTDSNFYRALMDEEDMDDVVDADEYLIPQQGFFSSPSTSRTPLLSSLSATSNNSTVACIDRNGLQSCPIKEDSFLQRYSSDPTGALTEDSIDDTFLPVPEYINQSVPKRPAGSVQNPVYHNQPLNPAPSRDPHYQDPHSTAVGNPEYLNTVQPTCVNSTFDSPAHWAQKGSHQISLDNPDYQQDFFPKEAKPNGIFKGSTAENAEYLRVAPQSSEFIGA

| SMILES | IC50 (NCI-H1975) [nM] | IC50 [2] [nM] | IC50 [3] [nM] | IC50 [1] [nM] |
| --- | --- | --- | --- | --- |
| C=CC(=O)Nc1ccc2ncnc(Nc3ccc(S(=O)(=O)Nc4ccccn4)cc3)c2c1 | > 40000 | 4390 | 9.8 | 390 |
| C=CC(=O)Nc1ccc2ncnc(NC3CCCCC3)c2c1 | > 40000 | 2800 | 3.4 | 400 |
| C=CC(=O)N1CCc2c(sc3ncnc(Nc4cccc(C)c4F)c23)C1 | 33800 | 280 | 3.95 | 1400 |
| C=CC(=O)N1CCc2c(sc3ncnc(Nc4ccc(Br)cc4F)c23)C1 | > 40000 |  | 3.71 | 2300 |
| C=CC(=O)N1CCc2c(sc3ncnc(Nc4ccc(Br)c(C)c4)c23)C1 | > 40000 |  | 4.4 | > 40000 |
| C=CC(=O)N1CCc2c(sc3ncnc(Nc4cccc(CC)c4)c23)C1 | 23800 |  | 8.73 | 3200 |
| C=CC(=O)N1CCc2c(sc3ncnc(Nc4ccc(CC)cc4)c23)C1 | 15200 | 130 | 7.38 | 6200 |
| C=CC(=O)N1CCc2c(sc3ncnc(NC4CCCCC4)c23)C1 | > 40000 | > 5000 | > 150 | > 40000 |
| C=CC(=O)Nc1ccc2ncnc(Nc3ccccc3CC)c2c1 | 16000 | 2000 | 18.9 | 7700 |
| C=CC(=O)Nc1ccc2ncnc(Nc3ccc(CC)cc3)c2c1 | 15700 |  | 3.2 | 1140 |
| C=CC(=O)Nc1ccc2ncnc(Nc3ccc(S(N)(=O)=O)cc3)c2c1 | > 40000 |  | 76.5 | 2500 |
| C=CC(=O)Nc1ccc2ncnc(Nc3ccc(S(=O)(=O)NC(=N)N)cc3)c2c1 | > 40000 |  | 53.3 | > 40000 |
| C=CC(=O)Nc1ccc2ncnc(Nc3ccc(S(=O)(=O)Nc4nccs4)cc3)c2c1 | > 40000 |  | 43.7 | 4000 |

Now those with a lower IC50 (NCI-H1975), led by results:

| IC50 (NCI-H1975) [nM] | IC50 [2] [nM] | IC50 [3] [nM] | SMILES | IC50 [1] [nM] |
| --- | --- | --- | --- | --- |
| 440 |  |  | C=CC(=O)Nc1ccc2ncnc(Nc3cccc(Br)c3)c2c1 | 200 |
| 280 | 36 | 2.1 | C=CC(=O)Nc1ccc2ncnc(Nc3ccc(Br)cc3F)c2c1 | 510 |
| 260 |  | 2.2 | C=CC(=O)Nc1ccc2ncnc(Nc3c(F)cccc3Br)c2c1 | 230 |
| 1860 |  | 2.2 | C=CC(=O)Nc1ccc2ncnc(Nc3ccc(Br)cc3C)c2c1 | 630 |
| 1820 |  | 2.3 | C=CC(=O)Nc1ccc2ncnc(Nc3ccc(Br)c(C)c3)c2c1 | 1420 |
| 390 | 111000 | 1.5 | C=CC(=O)Nc1ccc2ncnc(Nc3cccc(C)c3F)c2c1 | 1860 |
| 400 |  | 2.5 | C=CC(=O)Nc1ccc2ncnc(Nc3ccc(Br)c(OC)c3)c2c1 | 360 |
| 13900 |  |  | C=CC(=O)Nc1ccc2ncnc(Nc3ccc(OC)cc3OC)c2c1 | 6890 |
| 680 | 275 | 2.7 | C=CC(=O)Nc1ccc2ncnc(Nc3cccc(CC)c3)c2c1 | 2820 |

Reference: ChEMBL document CHEMBL3132827, “Quinazoline and tetrahydropyridothieno[2,3-d]pyrimidine derivatives as irreversible EGFR tyrosine kinase inhibitors: influence of the position 4 substituent” (Medchemcomm, 2013)
